Experimental data from patent US10947284B2, “Fusion molecules” (Pieris Pharmaceuticals GMBH, priority 2015, dated 2021).
pIC50, pKd: −log10 of the molar value. Starred links: 1 amine or outer side, 2 acyl side, 3 side chain; linkers in the order of their positions; H or OH if unused. Non-standard residues stand in square brackets, D forms with d. Residues, ends and D or L forms follow the SMILES beside them. *: point of attachment. X1 = O=C([C@@H]1CCNc2c(N[*:1])cc3cc(O)c(O)cc3[n+]21)[*:2]; dOrn(N5-OH,N5-CHO) = N[C@H](CCCN(O)C=O)C(=O)O; d(aThr) = C[C@@H](O)[C@@H](N)C(=O)O; Suc = O=C(CCC(=O)[*:2])[*:1]; X2 = O=C1[C@@H](N*)CCCN1[O-]; Orn = NCCC[C@H](N)C(=O)O

Experiments:
[1] = target: T1, Fusion molecule SEQ ID NO: 134 (hNGAL muteins SEQ ID NOs: 36, 16, 53 and 62) (Homo sapiens, UniProt P80188, A60T/C107S/D97H, form not given/K145I/K154W/K93R/L123T/L56V/L90R/N85D/Q69G/R101D/R92I/S147R/S88D/T74A/W99Y/Y126Q/Y152I/Y72N); test: Surface plasmon resonance (Biacore T200); format: binding; details: for binding: SPR
T1 construct: made in house; host or cells: HEK293
T1 sequence (P80188 with tags, fused parts or gaps with the stated changes, form open): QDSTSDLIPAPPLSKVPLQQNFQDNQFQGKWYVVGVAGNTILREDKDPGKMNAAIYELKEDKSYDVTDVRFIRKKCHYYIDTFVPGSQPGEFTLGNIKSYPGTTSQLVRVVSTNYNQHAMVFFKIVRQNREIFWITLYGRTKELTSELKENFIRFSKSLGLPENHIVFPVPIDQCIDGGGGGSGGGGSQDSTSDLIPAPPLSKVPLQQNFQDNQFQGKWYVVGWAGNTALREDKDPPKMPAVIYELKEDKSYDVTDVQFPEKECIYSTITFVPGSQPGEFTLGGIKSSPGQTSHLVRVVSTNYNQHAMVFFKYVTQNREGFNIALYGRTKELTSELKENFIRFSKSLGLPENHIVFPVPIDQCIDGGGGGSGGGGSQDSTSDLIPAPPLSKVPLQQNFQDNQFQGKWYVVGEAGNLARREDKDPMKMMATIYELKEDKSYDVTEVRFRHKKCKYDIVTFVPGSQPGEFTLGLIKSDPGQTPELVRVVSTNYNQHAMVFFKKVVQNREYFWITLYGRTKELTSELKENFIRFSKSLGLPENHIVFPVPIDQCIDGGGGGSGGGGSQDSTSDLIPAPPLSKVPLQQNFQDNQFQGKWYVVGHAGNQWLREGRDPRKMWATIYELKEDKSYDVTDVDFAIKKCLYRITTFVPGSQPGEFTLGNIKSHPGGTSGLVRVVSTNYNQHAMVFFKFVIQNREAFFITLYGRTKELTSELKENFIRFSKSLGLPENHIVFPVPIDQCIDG

[2] = target: T2, hNGAL (human lipocalin 2, parent wild type SEQ ID NO: 1) mutein SEQ ID NO: 62 (Homo sapiens, UniProt P80188, A60Q/C107S/D65G/D97L/I61W/K145F/K154F/K66R/K93I/L123G/L56H/L90D/N85D/Q69R/R101T/R92A/S147I/S88D/W99R/Y120H/Y126G/Y152A/Y72W); test: Surface plasmon resonance (Biacore T200), CM5 chip; format: binding; details: SPR, high concentrations (≥1 μM)
T2 construct: made in house
Protocol: (§1) Subsequently, 5 μg/mL of mutein or the negative control solution in 10 mM acetate pH 4.0 was applied at a flow rate of 10 μl/min until a high immobilization level of approximately 2000 RU was achieved. Residual activated groups were quenched with ethanolamine. The reference channels were treated with EDC/NHS following ethanolamine (blank immobilization).
The binding assay was carried out with a contact time of 180 s, dissociation times of 1200-1800 s and applying a flow rate of 30 μl/min. Measurements were performed at 25° C. Regeneration of the immobilized mutein surface was achieved by three consecutive injections of 10 mM Gly-HCl pH 1.5 (120 s) followed by an extra wash with running buffer and a stabilization period. Data were evaluated with Biacore T200 Evaluation software (V 1.0). Double referencing was used. The 1:1 Binding model was used to fit the raw data.
Subsequently, 5 μg/mL of mutein or the negative control solution in 10 mM acetate pH 4.0 was applied at a flow rate of 10 μl/min until a high immobilization level of approximately 2000 RU was achieved. Residual activated groups were quenched with ethanolamine. The reference channels were treated with EDC/NHS following ethanolamine (blank immobilization). […] The binding assay was carried out with a contact time of 180 s, dissociation times of 1500-1800 s and applying a flow rate of 30 μl/min. Measurements were performed at 25° C. Regeneration of the immobilized mutein surface was achieved by three consecutive injections of 10 mM Gly-HCl pH 1.5 (120 s) followed by an extra wash with running buffer and a stabilization period. Data were evaluated with Biacore T200 Evaluation software (V 1.0). Double referencing was used. The 1:1 Binding model was used to fit the raw data.

[3] = target: lipocalin negative control SEQ ID NO: 64 (Homo sapiens, UniProt P80188, C107S/Q48H); test: Surface plasmon resonance (Biacore T200); format: binding
Protocol: (§2) In a Surface Plasmon Resonance (SPR) based assay a Biacore T200 instrument (GE Healthcare) was used to measure the binding affinity of muteins to pyoverdine I succinyl, -succinamide, -α-ketoglutaryl with complexed iron ion or to pyoverdine II succinyl, -succinamide, -α-ketoglutaryl with complexed iron ion or to pyoverdine III succinyl, -succinamide, -α-ketoglutaryl with complexed iron ion. Muteins selected for binding to pyoverdines and negative control (SEQ ID NO: 64) were biotinylated for 2 h at room temperature applying an appropriate excess of EZ-Link NHS-PEG4-Biotin (Thermo, Cat #21329) followed by separation of non-reacted Biotin using a Zebra Spin Desalting Plate (Thermo, Cat #21329) according to the manufactures instructions.
(§3) In the SPR affinity assay, biotinylated muteins and negative control were captured on a sensor chip CAP using the Biotin CAPture Kit (GE Healthcare): Sensor Chip CAP is pre-immobilized with an ssDNA oligo. Undiluted Biotin CAPture Reagent (streptavidin conjugated with the complementary ss-DNA oligo) was applied at a flow rate of 2 μl/min for 300 s. Subsequently, 1 μg/ml to 100 μg/mL of biotinylated muteins or negative control were applied for 300 s at a flow rate of 5 μl/min. The reference channel was loaded with Biotin CAPture Reagent only.
(§4) Applying a flow rate of 30 μl/min, a single cycle or multi cycle kinetics approach was used with a sample contact time of 120-180 s and a dissociation time of 900-2400 s. […] After ligand immobilization, for analysis using single cycle kinetics all 4-5 concentrations of Pvd were applied consecutively in ascending order before the dissociation was monitored. For analysis using multi cycle kinetics 4 dilutions of Pvd were applied, each followed a dissociation phase. All measurements were performed at 25° C. […] Data were evaluated with Biacore T200 Evaluation software (V 1.0). Double referencing was used. A 1:1 Binding model was used to fit the raw data.
as §1
In the SPR affinity assay, biotinylated muteins and negative control were captured on a sensor chip CAP using the Biotin CAPture Kit (GE Healthcare), wherein the Sensor Chip CAP is pre-immobilized with an ssDNA oligo. Undiluted Biotin CAPture Reagent (streptavidin conjugated with the complementary ss-DNA oligo) was applied at a flow rate of 2 μl/min for 300 s. Subsequently, 20 μg/ml to 100 μg/mL of biotinylated muteins or fusion molecule negative control were applied for 300 s at a flow rate of 5 μl/min. The reference channel was loaded with Biotin CAPture Reagent only. To determine the binding affinity, four dilutions of the respective Pvd were prepared in HBS-EP+ buffer (GE Healthcare) and applied to the chip surface. Applying a flow rate of 30 μl/min, a single cycle kinetics approach was used with a sample contact time of 180 s and a dissociation time of 1800-2400 s. […] After ligand immobilization, the four concentrations of Pvd were applied consecutively in ascending order before the dissociation was monitored. All measurements were performed at 25° C. […] Data were evaluated with Biacore T200 Evaluation software (V 1.0). Double referencing was preformed. A 1:1 binding model was used to fit the raw data.

[4] = target: T3, hNGAL (human lipocalin 2, parent wild type SEQ ID NO: 1) mutein SEQ ID NO: 48 (Homo sapiens, UniProt P80188, A60L/C107S/D67N/D97K/I61A/K154W/K93H/L123Q/L56E/L90R/N116L/Q48H/Q69M/R101V/S125P/S147V/S88E/T165P/W99D/Y120D/Y126E/Y72M); test: Solution binding ELISA
T3 construct: made in house; host or cells: E. coli
Protocol: (§5) The concentration of free (non ligand-bound) muteins was determined via a quantitative ELISA setup.
(§6) In detail, a 384-well plate suitable for fluorescence measurements (Greiner FLUOTRAC™ 600, black flat bottom, high-binding) was coated with 20 μl of Neutravidin at a concentration of 5 μg/ml in PBS overnight at 4 C. After washing, the Neutravidin-coated wells were blocked with 100 μl blocking buffer containing 0.1% Tween 20 and 2% BSA (PBS-T/BSA) for 1 h at room temperature.
(§7) The residual supernatants were discarded and 20 μl HRP-labeled anti-hNGAL antibody was added at a predetermined optimal concentration in PBS-T/BSA and incubated for 1 h at RT. […] After washing, 20 μl fluorogenic HRP substrate (QuantaBlu, Thermo) was added to each well, and the reaction was allowed to proceed for 15 to 60 minutes. The fluorescence intensity of every well on the plate was read using a fluorescence microplate reader (Tecan or Molecular Devices). […] Curve fitting was performed using GraphPad Prism 4 software.

[5] = target: T4, hNGAL (human lipocalin 2, parent wild type SEQ ID NO: 1) mutein SEQ ID NO: 53 (Homo sapiens, UniProt P80188, A60L/C107S/D97K/I61A/K154W/K93H/L123Q/L56E/L62R/L90R/N116L/N85D/Q69M/R101V/S125P/S147V/S88E/W99D/Y120D/Y126E/Y72M); test: Solution binding ELISA; details: Example 5
T4 construct: made in house; host or cells: E. coli
Protocol: as §5, §6, §7
The concentration of free (non ligand-bound) mutein or fusion molecule construct was determined via a quantitative ELISA setup.
In detail, a 384-well plate suitable for fluorescence measurements (Greiner FLUOTRAC™ 600, black flat bottom, high-binding) was coated with 20 μl of Neutravidin at a concentration of 5 μg/ml in PBS overnight at 4° C. After washing, the Neutravidin-coated wells were blocked with 100 μl blocking buffer containing 0.1% Tween 20 and 2% BSA (PBS-T/BSA) for 1 h at room temperature.
The residual supernatants were discarded and 20 μl HRP-labeled anti-hNGAL antibody was added at a predetermined optimal concentration in PBS-T/BSA and incubated for 1 h at RT. […] After washing, 20 μl fluorogenic HRP substrate (QuantaBlu, Thermo) was added to each well, and the reaction was allowed to proceed for 15 to 60 minutes. The fluorescence intensity of every well on the plate was read using a fluorescence microplate reader (Tecan or Molecular Devices). […] IC50 values were fitted by nonlinear regression with a single-sites binding model. Curve fitting was performed using GraphPad Prism 4 software.

[6] = target: T5, hNGAL (human lipocalin 2, parent wild type SEQ ID NO: 1) mutein SEQ ID NO: 50 (Homo sapiens, UniProt P80188, A60L/C107S/D97K/I61A/K154W/K93H/L123Q/L56E/L62R/L90R/N116L/N85D/Q48H/Q69M/R101V/S125P/S147V/S88E/W99D/Y120D/Y126E/Y72M); test: Solution binding ELISA; details: Example 5
T5 construct: made in house; host or cells: E. coli
Protocol: as §5, §6, §7

[7] = target: T6, hNGAL (human lipocalin 2, parent wild type SEQ ID NO: 1) mutein SEQ ID NO: 46 (deletion of G-N-I-K, positions 95-98) (Homo sapiens, UniProt P80188, A60L/C107S/D97Q/DEL115-118/I61A/K154W/K93Y/L123Q/L56E/L90R/Q48H/Q69K/R101V/S147V/S88E/W99D/Y120E/Y126E/Y152F/Y72M); test: Solution binding ELISA
T6 construct: made in house; host or cells: E. coli
Protocol: as §5, §6, §7

[8] = target: T7, hNGAL (human lipocalin 2, parent wild type SEQ ID NO: 1) mutein SEQ ID NO: 44 (Homo sapiens, UniProt P80188, A60L/C107S/D97K/I61T/K154W/K93R/L123Q/L56E/L90R/N116V/Q48H/Q69M/R101V/S147V/S88E/W99D/Y120D/Y126E/Y72M); test: Solution binding ELISA
T7 construct: made in house; host or cells: E. coli
Protocol: as §5, §6, §7

[9] = target: T8, Fusion molecule SEQ ID NO: 134 (hNGAL muteins SEQ ID NOs: 36, 16, 53 and 62) (Homo sapiens, UniProt P80188, A60T/C107S/D97H, form not given/K145I/K154W/K93R/L123T/L56V/L90R/N85D/Q69G/R101D/R92I/S147R/S88D/T74A/W99Y/Y126Q/Y152I/Y72N); test: Solution binding ELISA; details: binding to target in solution, tracer 0.1 nM, Table 11
T8 construct: made in house
T8 sequence (P80188 with tags, fused parts or gaps with the stated changes, form open): as above

[10] = target: T4, hNGAL (human lipocalin 2, parent wild type SEQ ID NO: 1) mutein SEQ ID NO: 53; test: Surface plasmon resonance (Biacore T200); format: binding; details: SPR, 25° C., Table 2C
Protocol: as §2, §3, §4
In a surface plasmon resonance (SPR) based assay, a Biacore T200 instrument (GE Healthcare) was used to measure the binding affinity of individual muteins or fusion molecules to pyoverdine siderophores (to pyoverdine I succinyl, -succinamide, -α-ketoglutaryl with complexed iron ion or to pyoverdine II succinyl, -succinamide, -α-ketoglutaryl with complexed iron ion or to pyoverdine III succinyl, -succinamide, -α-ketoglutaryl with complexed iron ion). To this end, muteins selected for binding to pyoverdines (SEQ ID NOs: 16, 36, 53), a fusion molecule (SEQ ID NO: 134) and a negative control (SEQ ID NO: 64) were biotinylated for 2 h at room temperature applying an appropriate excess of EZ-Link NHS-PEG4-Biotin (Thermo, Cat #21329) followed by separation of non-reacted biotin using a Zebra Spin Desalting Plate (Thermo, Cat #21329) according to the manufacturer's instructions.
In the SPR affinity assay, biotinylated muteins and negative control were captured on a sensor chip CAP using the Biotin CAPture Kit (GE Healthcare), wherein the Sensor Chip CAP is pre-immobilized with an ssDNA oligo. Undiluted Biotin CAPture Reagent (streptavidin conjugated with the complementary ss-DNA oligo) was applied at a flow rate of 2 μl/min for 300 s. Subsequently, 20 μg/ml to 100 μg/mL of biotinylated muteins or fusion molecule negative control were applied for 300 s at a flow rate of 5 μl/min. The reference channel was loaded with Biotin CAPture Reagent only. To determine the binding affinity, four dilutions of the respective Pvd were prepared in HBS-EP+ buffer (GE Healthcare) and applied to the chip surface. Applying a flow rate of 30 μl/min, a single cycle kinetics approach was used with a sample contact time of 180 s and a dissociation time of 1800-2400 s. […] After ligand immobilization, the four concentrations of Pvd were applied consecutively in ascending order before the dissociation was monitored. All measurements were performed at 25° C. […] Data were evaluated with Biacore T200 Evaluation software (V 1.0). Double referencing was preformed.

[11] = target: T9, hNGAL (human lipocalin 2, parent wild type SEQ ID NO: 1) mutein SEQ ID NO: 47 (Homo sapiens, UniProt P80188, A60L/C107S/D97K/I61A/K154W/K93H/L123Q/L56E/L62R/L90R/N116L/Q48H/Q69M/R101V/S125P/S147V/S88E/W99D/Y120D/Y126E/Y72M); test: Solution binding ELISA
T9 construct: made in house; host or cells: E. coli
Protocol: as §5, §6, §7

[12] = target: T10, hNGAL (human lipocalin 2, parent wild type SEQ ID NO: 1) mutein SEQ ID NO: 45 (Homo sapiens, UniProt P80188, A60L/C107S/D97K/I61A/K154W/K93H/L123Q/L56E/L90R/N116L/Q48H/Q69M/R101V/S147V/S88E/W99D/Y120D/Y126E/Y72M); test: Solution binding ELISA
T10 construct: made in house; host or cells: E. coli
Protocol: as §5, §6, §7

[13] = target: T11, hNGAL (human lipocalin 2, parent wild type SEQ ID NO: 1) mutein SEQ ID NO: 42 (Homo sapiens, UniProt P80188, A60L/C107S/D97Q/I61A/K154W/K93H/L123Q/L56E/L90R/N116L/Q48H/Q69K/R101A/S147V/S88E/W99D/Y120D/Y126E/Y152F/Y72M); test: Solution binding ELISA
T11 construct: made in house; host or cells: E. coli
Protocol: as §5, §6, §7

[14] = target: T12, hNGAL (human lipocalin 2, parent wild type SEQ ID NO: 1) mutein SEQ ID NO: 39 (Homo sapiens, UniProt P80188, A60R/C107S/D97A/I61W/K145T/K154E/K93L/L123P/L56F/L90N/N116R/Q48H/Q69I/R101S/R92W/S147I/S88Q/W99S/Y120I/Y126E/Y152F); details: solution binding ELISA
T12 construct: made in house; host or cells: E. coli
Protocol: as §5, §6, §7

[15] = target: T13, hNGAL (human lipocalin 2, parent wild type SEQ ID NO: 1) mutein SEQ ID NO: 43 (Homo sapiens, UniProt P80188, A60L/C107S/D97K/I61A/K154W/K93Q/L123Q/L56E/L90R/N116L/Q48H/Q69M/R101V/S147V/S88E/W99D/Y120D/Y126E/Y72M); test: Solution binding ELISA
T13 construct: made in house; host or cells: E. coli
Protocol: as §5, §6, §7

[16] = target: hNGAL (human lipocalin 2), wild type, SEQ ID NO: 1 (Homo sapiens, UniProt P80188); details: cited from earlier work
hNGAL (human lipocalin 2), wild type, SEQ ID NO: 1, sequence (P80188 21-198): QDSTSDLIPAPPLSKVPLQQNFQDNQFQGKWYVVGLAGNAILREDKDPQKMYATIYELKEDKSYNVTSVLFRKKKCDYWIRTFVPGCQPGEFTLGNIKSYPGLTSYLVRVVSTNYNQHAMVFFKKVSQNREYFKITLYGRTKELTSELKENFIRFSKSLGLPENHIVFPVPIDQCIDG

lipocalin negative control SEQ ID NO: 64, sequence (P80188 21-198 Q48H/C107S): as the sequence (P80188 21-198) above, with Q28H, C87S counted along it
T7 sequence (P80188 other isoform, or with tags, fused parts or gaps with the stated changes): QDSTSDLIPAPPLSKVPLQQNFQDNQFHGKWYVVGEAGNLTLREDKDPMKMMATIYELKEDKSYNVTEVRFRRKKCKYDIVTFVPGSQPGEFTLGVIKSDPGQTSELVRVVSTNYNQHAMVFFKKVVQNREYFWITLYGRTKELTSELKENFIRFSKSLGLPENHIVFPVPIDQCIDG
T11 sequence (P80188 other isoform, or with tags, fused parts or gaps with the stated changes): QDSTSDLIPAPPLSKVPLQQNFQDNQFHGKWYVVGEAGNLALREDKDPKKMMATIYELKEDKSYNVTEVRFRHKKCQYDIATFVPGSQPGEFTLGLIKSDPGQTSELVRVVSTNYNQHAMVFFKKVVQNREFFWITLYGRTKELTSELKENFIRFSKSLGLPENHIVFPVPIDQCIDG
T10 sequence (P80188 other isoform, or with tags, fused parts or gaps with the stated changes): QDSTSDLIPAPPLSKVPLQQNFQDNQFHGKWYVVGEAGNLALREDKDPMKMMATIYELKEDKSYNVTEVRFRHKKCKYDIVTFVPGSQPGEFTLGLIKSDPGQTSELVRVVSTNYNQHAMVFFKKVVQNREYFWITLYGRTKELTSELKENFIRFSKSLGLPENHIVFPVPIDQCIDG
T9 sequence (P80188 other isoform, or with tags, fused parts or gaps with the stated changes): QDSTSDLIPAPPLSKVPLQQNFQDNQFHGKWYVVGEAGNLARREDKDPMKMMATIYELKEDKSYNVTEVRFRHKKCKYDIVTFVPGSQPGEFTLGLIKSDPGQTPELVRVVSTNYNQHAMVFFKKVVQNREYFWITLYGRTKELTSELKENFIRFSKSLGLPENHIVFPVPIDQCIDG
T3 sequence (P80188 other isoform, or with tags, fused parts or gaps with the stated changes): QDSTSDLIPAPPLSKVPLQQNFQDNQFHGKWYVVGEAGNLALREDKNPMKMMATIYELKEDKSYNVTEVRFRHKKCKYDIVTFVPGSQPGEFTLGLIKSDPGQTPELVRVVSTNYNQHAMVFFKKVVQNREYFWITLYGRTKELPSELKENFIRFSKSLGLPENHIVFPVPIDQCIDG
T6 sequence (P80188 other isoform, or with tags, fused parts or gaps with the stated changes): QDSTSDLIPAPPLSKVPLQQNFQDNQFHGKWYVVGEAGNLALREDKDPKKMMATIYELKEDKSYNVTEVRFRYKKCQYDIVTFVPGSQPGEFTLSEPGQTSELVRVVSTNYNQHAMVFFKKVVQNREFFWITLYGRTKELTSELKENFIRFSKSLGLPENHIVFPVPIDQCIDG
T13 sequence (P80188 other isoform, or with tags, fused parts or gaps with the stated changes): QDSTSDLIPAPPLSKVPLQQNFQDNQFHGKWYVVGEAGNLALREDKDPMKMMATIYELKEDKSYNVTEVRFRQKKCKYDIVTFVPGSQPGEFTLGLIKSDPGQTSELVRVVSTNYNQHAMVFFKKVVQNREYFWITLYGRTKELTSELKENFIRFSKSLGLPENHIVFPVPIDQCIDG
T12 sequence (P80188 other isoform, or with tags, fused parts or gaps with the stated changes): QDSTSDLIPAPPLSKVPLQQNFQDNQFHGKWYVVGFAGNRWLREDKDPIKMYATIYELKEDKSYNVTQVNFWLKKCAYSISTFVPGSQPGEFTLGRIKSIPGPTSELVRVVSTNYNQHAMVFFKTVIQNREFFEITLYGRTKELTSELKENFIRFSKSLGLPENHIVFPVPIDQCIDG
T4 sequence (P80188 21-198 with the stated changes): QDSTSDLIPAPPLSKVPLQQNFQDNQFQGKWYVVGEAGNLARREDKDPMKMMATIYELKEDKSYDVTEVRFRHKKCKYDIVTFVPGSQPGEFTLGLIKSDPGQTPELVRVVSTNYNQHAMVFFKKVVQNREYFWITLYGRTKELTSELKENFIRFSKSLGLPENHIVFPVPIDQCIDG
T5 sequence (P80188 other isoform, or with tags, fused parts or gaps with the stated changes): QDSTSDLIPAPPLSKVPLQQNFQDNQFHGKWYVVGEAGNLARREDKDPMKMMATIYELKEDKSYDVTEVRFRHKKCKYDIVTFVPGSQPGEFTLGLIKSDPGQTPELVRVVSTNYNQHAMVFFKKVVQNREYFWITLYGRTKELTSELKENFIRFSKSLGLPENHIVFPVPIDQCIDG
T2 sequence (P80188 21-198 with the stated changes): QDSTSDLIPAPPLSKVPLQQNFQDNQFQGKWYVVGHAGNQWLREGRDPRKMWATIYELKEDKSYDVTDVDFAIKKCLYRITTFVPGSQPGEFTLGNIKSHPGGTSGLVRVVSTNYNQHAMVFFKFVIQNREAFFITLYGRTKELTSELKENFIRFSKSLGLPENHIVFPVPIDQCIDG

Row | Compound | pIC50 [4] | pIC50 [5] | pIC50 [6] | pIC50 [7] | pIC50 [8] | pIC50 [9] | pKd ([1]; Biacore, 25° C., Table 13) | pIC50 [11] | pIC50 [12] | pIC50 [13] | pIC50 [14] | pIC50 [15] | binding [16] | other results
1 | CC(=O)N(O)CCCCCNC(=O)CCC(=O)N(O)CCCCCNC(=O)CCC(=O)N(O)CCCCCN [Desferoxamin, desferoxamine] | – | – | – | – | – | – | – | – | – | – | – | – | – | KD ([1]; Biacore, 25° C., Table 13): no bdg; binding ([1]; high concentrations (≥1 μM)): absence of binding; binding [2]: absence of binding
2 | C[C@@H](O)[C@@H](NC(=O)CNC(=O)[C@H](CCCN)NC(=O)[C@@H](CCCN([O-])C=O)NC(=O)[C@@H](CO)NC(=O)[C@@H]1CCNc2c(NC(=O)CCC(=O)O)cc3cc([O-])c([O-])cc3[n+]21)C(=O)N[C@@H](CO)C(=O)N[C@H]1CCCN([O-])C1=O.[Fe+3] [Pvd II s (+Fe), Pvd type II succinyl] (Suc-[X1][dS][dOrn(N5-OH,N5-CHO)][Orn]G[d(aThr)]S-X2) | – | – | – | – | – | – | – | – | – | – | – | – | – | binding ([3]; SPR, analyte at 1200 nM): absence of binding
3 | NC(=O)CC[C@H](NC(=O)[C@H](CCCN([O-])C=O)NC(=O)[C@@H]1CCN=C([C@@H](CO)NC(=O)[C@@H]2CCNc3c(NC(=O)C(=O)CCC(=O)O)cc4cc([O-])c([O-])cc4[n+]32)N1)C(=O)N[C@H](CCC(N)=O)C(=O)N[C@H](CCCN([O-])C=O)C(=O)NCC(=O)O.[Fe+3] [Pvd III aKG (+Fe), Pvd type III α-ketoglutaryl] | 9.02 | 9.27 | 9.02 | 8.99 | 9.03 | 9.24 | 8.98 | 9.09 | 8.82 | 7.11 | 7.64 | 8.85 | – | pKd [10]: 8.44; koff [10]: 0.00014 s⁻¹; kon [10]: 38800 M⁻¹ s⁻¹
4 | NC(=O)CC[C@H](NC(=O)[C@H](CCCN(O)C=O)NC(=O)[C@@H]1CCN=C([C@@H](CO)NC(=O)[C@@H]2CCNc3c(NC(=O)C(=O)CCC(=O)O)cc4cc(O)c(O)cc4[n+]32)N1)C(=O)N[C@H](CCC(N)=O)C(=O)N[C@H](CCCN(O)C=O)C(=O)NCC(=O)O [Pvd III aKG (−Fe), Pvd type III α-ketoglutaryl] | 9.19 | 9.48 | 9.09 | 8.92 | 8.96 | 9.15 | 7.73 | 9.24 | 8.77 | 7.16 | 7.64 | 8.72 | – | –
5 | NC(=O)CC[C@H](NC(=O)[C@H](CCCN([O-])C=O)NC(=O)[C@@H]1CCN=C([C@@H](CO)NC(=O)[C@@H]2CCNc3c(NC(=O)CCC(=O)O)cc4cc([O-])c([O-])cc4[n+]32)N1)C(=O)N[C@H](CCC(N)=O)C(=O)N[C@H](CCCN([O-])C=O)C(=O)NCC(=O)O.[Fe+3] [Pvd III s (+Fe), Pvd type III succinyl] | – | – | – | – | – | – | – | – | – | – | – | – | – | binding ([3]; SPR, analyte at 1200 nM): absence of binding
6 | NC(=O)CCC(=O)Nc1cc2cc([O-])c([O-])cc2[n+]2c1NCC[C@H]2C(=O)N[C@H](CO)C1=NCC[C@@H](C(=O)N[C@@H](CCCN([O-])C=O)C(=O)N[C@@H](CCC(N)=O)C(=O)N[C@H](CCC(N)=O)C(=O)N[C@H](CCCN([O-])C=O)C(=O)NCC(=O)O)N1.[Fe+3] [Pvd III sa (+Fe), Pvd type III succinamide] | 9.66 | 9.60 | 9.46 | 9.52 | 9.59 | 9.51 | 9.57 | 9.52 | 9.37 | 7.82 | 6.83 | 9.60 | – | pKd [10]: 9.24; koff [10]: 3.9e-05 s⁻¹; kon [10]: 67300 M⁻¹ s⁻¹
7 | NC(=O)CCC(=O)Nc1cc2cc(O)c(O)cc2[n+]2c1NCC[C@H]2C(=O)N[C@H](CO)C1=NCC[C@@H](C(=O)N[C@@H](CCCN(O)C=O)C(=O)N[C@@H](CCC(N)=O)C(=O)N[C@H](CCC(N)=O)C(=O)N[C@H](CCCN(O)C=O)C(=O)NCC(=O)O)N1 [Pvd III sa (−Fe), Pvd type III succinamide] | 9.62 | 9.20 | 9.43 | 9.52 | 9.68 | 9.57 | 8.78 | 9.55 | 9.34 | 8.14 | 7.03 | 9.34 | – | –
8 | O=C(N[C@H]1COC(=O)[C@@H](NC(=O)c2cccc(O)c2O)COC(=O)[C@@H](NC(=O)c2cccc(O)c2O)COC1=O)c1cccc(O)c1O.[Fe+3] [enterobactin] | – | – | – | – | – | – | – | – | – | – | – | – | high affinity | –
9 | CN1[C@@H]([C@H]2CSC(c3ccccc3O)=N2)SC[C@H]1C(=O)O [pyochelin] | – | – | – | – | – | – | – | – | – | – | – | – | does not bind | binding ([3]; Biacore, Example 18): did not show binding; binding ([1]; His-tagged fusion captured via Ni-NTA): clearly detectable
10 | pyoverdine | – | – | – | – | – | – | – | – | – | – | – | – | does not bind | binding ([3]; Biacore, Example 18): did not show binding; binding [2]: absence of binding
